This is an account of results in patent publication US20050215531A1, “Use of edg receptor binding agents in cancer” (priority 2002, published 2005).

The test system of this test is tissue factor. Briefly: Clotting assay, tissue factor activity on HUVEC. The format is cell-based, human. Here is the method:
Human umbilical vein endothelial cells (HUVEC) are cultured at 37° C. and 5% CO2 in medium M199 supplemented with 20% SCS (HyClone, Logan, Utah), 1 U/ml heparin, 50 μg/ml ECGS, 2 mM glutamine, 100 U/ml penicillin and 0.1 mg/ml streptomycin. Cells are used for experiments up to passage number 5. Short-starved HUVEC are obtained by starving with 1% SCS-containing M199 for 5 h. Recombinant human VEGF165 is obtained from PromoCell (Heidelberg, Germany). Phospho-specific ERK½, p3B kinase polyclonal antibodies, nonphospho ERK½ antibodies and LumiGLO chemiluminescent reagent are from New England BioLabs (Beverly, Mass.), polyclonal IKB antibodies from Santa Cruz Biotechnology (Santa Cruz, Calif.). Peroxidase-conjugated donkey anti-rabbit immunoglobulin G (IgG) and sheep anti-mouse IgG are purchased from Amersham LIFE SCIENCE (Amersham Place, England). lmmobilon-P transfer membranes are products of Millipore (Bedford, Mass.). S is obtained from Sigma Chemical Co.; S1P is from Biomol. Compound A-phosphate stock solution is prepared by the following protocol. Compound A-phosphate is dissolved in methanol tracing with concentrated HCl (0.5 mg Compound A-phosphate in 500 μl of methanol plus 2 μl of HCl). Solvent from the resulting solution is evaporated under vacuum and the residue obtained is redissolved (variant 1) in 0.1% of defatted BSA solution in sterile deionized water (500 μl) or (variant 2) in 0.5% Triton X-100 in deionized water. The resulting stock solutions (2.5 mM) are sonicated and stored at 4° C.
Cells are seeded in 6-well plates at 80-90% confluency and grown overnight. Cells are scraped from the plates and analyzed for tissue factor activity according to the method as described in Clauss, M., J. Biol. Chem. 271,17629-17634 (1996), Mechtcheriakova, D., Blood 93,3811-3823 (1999). Briefly, after induction for 4 hours with VEGF (1.5 nM), TNF-α (100 U/ml), S (0.5-2 μM), S1P (0.5-2 μM), Compound A (0.5-2 μM), and Compound A-phosphate (0.5-2 μM), cells are washed twice and then scraped in 1 ml clotting buffer (12 mM sodium acetate, 7 mM diethylbarbitate and 130 mM sodium chloride; pH 7.4). 50 μl of resuspended cells are mixed with 50 μl of citrated plasma, and clotting times are determined after recalcfication with 50 μl of 20 mM CaCl2 solution at 37° C. TF-equivalents are determined by using a standard curve obtained from rabbit brain thromboplastin.
An important characteristic feature of both classical inflammatory stimulus TNF-α and the main angiogenic growth factor VEGF on endothellal cells is their potency to upregulate tissue factor. Compound A, Compound A-phosphate, S or S1P are tested whether they also do induce tissue factor on HUVEC. […] The data obtained together indicate that Compound A, Compound A-phosphate, S and S1P mechanistically work distinctly to anglogenic VEGF and inflammatory TNF-α.

Each structure is given as a SMILES string.

For the molecule `CCCCCCCCc1ccc(CCC(N)(CO)COP(=O)(O)O)cc1` (stereo not drawn) [Compound A-phosphate], where the note is “TNF-α 100 U/ml”, the “effect on TNF-α-induced tissue factor” value is recorded as “not TNF-α-induced”. In addition, the “effect on VEGF-induced tissue factor” value (VEGF 1.5 nM) is recorded as “slightly enhance”. Moreover, for the setting “compound alone or in combinations, 0.5-2 μM, 4 hours”, the tissue factor activity entry is given as “none of these compounds alone or in combinations may elevate tissue factor activity”.
